# From patent publication US4282215A, “Analgesic mixture of nalbuphine and acetylsalicylic acid, derivative or salt thereof” (E. I. Du Pont de Nemours and Company, priority 1980, dated 1981)
# Structures can show the parent of a compound that is named as a salt.
# How the values were obtained:
# [1] = test system: phenyl-p-benzoquinone induced writhing in mice; assay: mouse antiphenylquinone writhing test at 20 minutes, oral nalbuphine.HCl / aspirin suspension (Method 1); format: in vivo, mouse (Male CF1)
# Procedure: (§1) Male CF1 mice obtained from Charles River Breeding Laboratories, fasted for 16-22 hours, and weighing 18-22 g at the time of testing are used throughout. All mice are dosed sequentially by the oral route with suspensions of acetylsalicylic acid and/or of nalbuphine solutions (Method 1) or of calcium acetylsalicylate (calcium aspirin) and/or of nalbuphine solutions (Method 2). In each case the aspirin component is calculated as the equivalent free acid content, and nalbuphine is calculated as the hydrochloride salt. A dosing volume of 10 ml/kg is used for each sequential solution or suspension. All doses are coded and the test is performed under a code not known to the observer.
# A stock suspension of aspirin is prepared by mixing 2.016 gm aspirin with 40 ml of an aqueous vehicle containing 2% by volume of Tween 80®, a pharmacological dispersant manufactured by Fisher Scientific Company and containing 100% polysorbate 80, and 1% by weight of Methocel® MC powder, a pharmacological suspending agent manufactured by DOW Chemical Company and containing 100% methylcellulose, in distilled water. The mixture is sonicated at 150 watts for 10-15 seconds with an ultrasound system, then shaken for 1 hour at 280 oscillations/minute with 15-20 gm of glass beads. The resultant suspension contains 50.4 mg/ml of aspirin; all dosing suspensions are prepared by dilution of the stock suspension with the Methocel®/Tween 80® vehicle; the vehicle control is Methocel®/Tween 80®. All suspensions are used within two hours of preparation, then discarded.
# Stock solutions of nalbuphine.HCl are prepared by dissolving dry nalbuphine hydrochloride powder with distilled water. All dosing solutions are prepared by dilution of the stock solutions with distilled water; the vehicle control is distilled water.
# (§2) A standard procedure for detecting and comparing the analgetic activity of different classes of analgesic drugs for which there is a good correlation with human analgetic activity is the prevention of phenyl-p-benzoquinone induced writhing in mice [H. Blumberg et al., Proc. Soc. Exp. Biol. Med., 118, 763-766 (1965)].
# (§3) Mice, intubated with various doses of nalbuphine.HCl, aspirin suspensions (Method 1), calcium aspirin solution (Method 2), or immediately sequential doses of nalbuphine.HCl and of the aspirin preparations as defined further, or of the respective vehicles, are injected intraperitoneally with a standard challenge dose of phenyl-p-benzoquinone 5 min. prior to a designated observation period. The phenyl-p-benzoquinone is prepared as a 0.1 mg/ml solution in 5% by volume of ethanol in water; the writhing dose is 1.25 mg/kg injected at a volume of 0.25 ml/20 g. For scoring purposes a "writhe" is indicated by whole body stretching or contraction of the abdomen during a 10 min. observation period beginning 5 min. after receiving the phenyl-p-benzoquinone dose. Each mouse is used only once, then discarded.
# (§4) All ED50 values and their 95% confidence limits are determined numerically by the methods of Thompson [W. F. Thompson, Bacteriological Rev., 11, 115-145 (1947)], Litchfield and Wilcoxon [J. T. Litchfield, Jr. and F. Wilcoxon, J. Pharm. Exp. Ther., 96, 99-113 (1949)], or Finney [D. J. Finney, "Probit Analysis," third edition, Cambridge University Press, Cambridge, England, (1971)].
# Rev., 9, 237-242 (1957)] in FIG. 1. […] In the isobolographic figures, the analgetic effects of nalbuphine alone are presented on the Y axis and of aspirin alone (or calcium aspirin, expressed as aspirin equivalent dosages) on the X axis. The dotted lines radiating from the origin represent the fixed dosage ratios of nalbuphine.HCl:aspirin in the ranges of 1:2.44 to 1:60.9 and 1:1.76 to 1:61.7 for FIGS. 1 and 2, respectively. […] The arrows extending above and below each ED50 point represent the 95% confidence limits of the ED50's. […]
# [2] = test system: phenyl-p-benzoquinone induced writhing in mice; assay: mouse antiphenylquinone writhing test at 40 minutes, oral nalbuphine.HCl / calcium aspirin (Method 2); format: in vivo, mouse (Male CF1)
# Procedure: as §1
# A stock solution of calcium aspirin is prepared by mixing 4.032 gm of aspirin and 1.120 gm of precipitated calcium carbonate with 50 ml of distilled water at 40°-50° C. until the solids are completely dissolved, then diluting to 60 ml with distilled water at ambient temperature to obtain a solution containing 67.2 mg/ml of aspirin equivalent. All dosing solutions are prepared by dilution of the stock solution with distilled water; the vehicle control is distilled water. All solutions are used within two hours of preparation, then discarded.
# Stock solutions of nalbuphine.HCl are prepared as described for Method 1.
# as §2, §3, §4
# Rev., 9, 237-242 (1957)] in FIG. 1. […] In the isobolographic figures, the analgetic effects of nalbuphine alone are presented on the Y axis and of aspirin alone (or calcium aspirin, expressed as aspirin equivalent dosages) on the X axis. The dotted lines radiating from the origin represent the fixed dosage ratios of nalbuphine.HCl:aspirin in the ranges of 1:2.44 to 1:60.9 and 1:1.76 to 1:61.7 for FIGS. 1 and 2, respectively. […] The arrows extending above and below each ED50 point represent the 95% confidence limits of the ED50's.
# The solid line connecting the ED50 dosages of nalbuphine (alone) and aspirin (alone) represents the "ED50 addition line," which indicates the expected location of the ED50's for nalbuphine and aspirin combinations if simple additivity were to describe their combined effects. The 95% confidence range for the ED50 addition line is shown by the area between the broken lines above and below the ED50 addition line. […]
structure (smiles),measurement,setting,value
"CC(=O)Oc1ccccc1C(=O)O [Aspirin, acetylsalicylic acid]","ED50 at 20 MIN., Aspirin (component)",[1]; N = 24 mice/dose,206 mg/kg
same,% MICE BLOCKED,"[1]; nalbuphine.HCl 0, aspirin 63 mg/kg",8.3%
same,% MICE BLOCKED,"[1]; nalbuphine.HCl 0, aspirin 126 mg/kg",37.5%
same,% MICE BLOCKED,"[1]; nalbuphine.HCl 0, aspirin 252 mg/kg",58.3%
same,% MICE BLOCKED,"[1]; nalbuphine.HCl 0, aspirin 504 mg/kg",79.2%
"Oc1ccc2c3c1O[C@H]1[C@@H](O)CC[C@@]4(O)[C@@H](C2)N(CC2CCC2)CC[C@]314 [Nalbuphine . HCl, (-)17-(cyclobutylmethyl)-4,5α-epoxymorphinan-3,6α,14-triol]","ED50 at 20 MIN., Nalbuphine . HCl (component)",[1]; N = 24 mice/dose,26.1 mg/kg
same,% MICE BLOCKED,"[1]; nalbuphine.HCl 5.18 mg/kg, aspirin 0",0%
same,% MICE BLOCKED,"[1]; nalbuphine.HCl 10.4 mg/kg, aspirin 0",16.7%
same,% MICE BLOCKED,"[1]; nalbuphine.HCl 20.7 mg/kg, aspirin 0",50.0%
same,% MICE BLOCKED,"[1]; nalbuphine.HCl 41.4 mg/kg, aspirin 0",62.5%
same,"ED50 at 40 MIN., Nalbuphine . HCl (component)",[2]; N = 54 mice/dose,42.6 mg/kg
same,% MICE BLOCKED,[2]; nalbuphine.HCl 5.45 mg/kg alone,13.0%
same,% MICE BLOCKED,"[2]; nalbuphine.HCl 10.9 mg/kg, aspirin 0",16.7%
same,% MICE BLOCKED,"[2]; nalbuphine.HCl 21.8 mg/kg, aspirin 0",27.8%
same,% MICE BLOCKED,"[2]; nalbuphine.HCl 43.6 mg/kg, aspirin 0",50.0%
same,% MICE BLOCKED,"[2]; nalbuphine.HCl 87.2 mg/kg, aspirin 0",74.1%
"CC(=O)Oc1ccccc1C(=O)O [calcium aspirin, calcium acetylsalicylate]","ED50 at 40 MIN., Aspirin (component; calcium aspirin as equivalent free aspirin)",[2]; N = 54 mice/dose,171 mg/kg
same,% MICE BLOCKED,"[2]; nalbuphine.HCl 0, aspirin equiv. 48 mg/kg",7.4%
same,% MICE BLOCKED,"[2]; nalbuphine.HCl 0, aspirin equiv. 96 mg/kg",13.0%
same,% MICE BLOCKED,"[2]; nalbuphine.HCl 0, aspirin equiv. 192 mg/kg",63.0%
same,% MICE BLOCKED,"[2]; nalbuphine.HCl 0, aspirin equiv. 384 mg/kg",87.0%
